# According to US20240287351A1, “ENGINEERED MULTIFUNCTIONAL PARTICLES AND THIN DURABLE COATINGS COMPRISING CROSSLINKED SILANE POLYMERS CONTAINING UREA” (Bar-Ilan University, priority 2020, published 2024):
# Test system: microorganisms
# Assay: Antimicrobial activity after organic materials and repetitive microbial loading cycles
# Conditions: after exposure to organic materials and repetitive microbial loading cycles
smiles,measurement,value
"[Na+].[O-]Cl [bleach, sodium hypochlorite]",retention of antimicrobial activity,losing its biocidal activity rapidly
